Assay results reported in patent US20110224226A1, “COMPOSITIONS AND METHODS FOR INCREASING BLOOD PLATELET LEVELS IN HUMANS” (AKARX, Inc., priority 2006, published 2011).
Read-outs that look alike come from different tables or passages of the source.

Assays:
[1] = molecular target: 2C9 (Homo sapiens, UniProt P11712); test: inhibition of human liver cytochrome P450 2C9; format: in vitro ADME; conditions: human liver cytochrome P450 isoenzyme
[2] = tested on: human hematopoietic progenitor cells; test: differentiation of hematopoietic progenitor cells other than megakaryocytic lineage; format: cell-based
[3] = QT interval in cynomolgus monkeys; format: in vivo; conditions: 100 and 1000 mg/kg, appears related to decreased heart rate from acclimation, not drug related
[4] = Example 2 multi-dose study: pharmacokinetics; format: in vivo, human; conditions: for Tmax at 14 days: read-out: mean time to maximum plasma concentration (Tmax); for Cmax at 14 days: read-out: mean maximum plasma concentration (Cmax)
Description: A double-blind, placebo-controlled, dose rising study was performed in healthy male and female volunteers. Each dose cohort received either placebo or active treatment as an oral suspension once daily for fourteen (14) consecutive days. The dose of study drug was prepared and administered as described in Example 1 above. The doses administered in this multiple dose study were based on the safety and tolerability assessment of the doses administered in Example 1.
Based on the results of Example 1, the starting dose was 3 mg. Based on the safety and tolerability results from Example 1, the dose was scheduled to be escalated to 10, 20, 50 and 100 mg per day for 14 consecutive days. Successive dose cohorts were not treated until the previous cohort completed 14 days of treatment and the safety follow-up visit on Day 21.

[5] = in-vitro plasma protein binding, monkeys; format: in vitro ADME; conditions: monkey, 0.05 to 50 μg/mL
Description: (§1) The in-vitro plasma protein binding of the drug of Formula I was independent of concentration over the concentration range of 0.05 to 50 μg/mL and was 87.2-89.1% in mice; 87.6-89.2% in rats; 88.3-92.0% in rabbits; […] in dogs; 97.0-97.6% in monkeys; and 96.3-96.6% in humans.

[6] = 4-week repeat dose toxicity in cynomolgus monkey; format: in vivo
[7] = molecular target: 2C19 (Homo sapiens, UniProt P33261); test: inhibition of human liver cytochrome P450 2C19; format: in vitro ADME; conditions: human liver cytochrome P450 isoenzyme
2C19, sequence (P33261 whole entry): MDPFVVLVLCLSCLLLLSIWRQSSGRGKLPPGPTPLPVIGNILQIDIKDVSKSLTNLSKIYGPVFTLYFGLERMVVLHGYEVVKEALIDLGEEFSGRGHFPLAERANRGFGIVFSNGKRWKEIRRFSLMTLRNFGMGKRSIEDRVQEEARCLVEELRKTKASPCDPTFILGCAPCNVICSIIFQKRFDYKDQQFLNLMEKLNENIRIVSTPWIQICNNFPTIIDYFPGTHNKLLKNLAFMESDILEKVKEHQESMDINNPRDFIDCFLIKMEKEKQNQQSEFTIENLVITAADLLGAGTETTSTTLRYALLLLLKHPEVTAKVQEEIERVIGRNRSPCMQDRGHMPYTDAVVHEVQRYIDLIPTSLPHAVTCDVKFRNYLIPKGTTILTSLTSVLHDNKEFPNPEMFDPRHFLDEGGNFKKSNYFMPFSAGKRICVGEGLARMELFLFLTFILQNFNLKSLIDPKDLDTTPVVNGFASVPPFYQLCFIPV

[8] = tested on: liver microsomal enzymes; test: metabolism by human liver microsomal enzymes; format: in vitro ADME
[9] = molecular target: 3A4 (Homo sapiens, UniProt P08684); test: inhibition of human liver cytochrome P450 3A4; format: in vitro ADME; conditions: human liver cytochrome P450 isoenzyme
3A4, sequence (P08684 whole entry): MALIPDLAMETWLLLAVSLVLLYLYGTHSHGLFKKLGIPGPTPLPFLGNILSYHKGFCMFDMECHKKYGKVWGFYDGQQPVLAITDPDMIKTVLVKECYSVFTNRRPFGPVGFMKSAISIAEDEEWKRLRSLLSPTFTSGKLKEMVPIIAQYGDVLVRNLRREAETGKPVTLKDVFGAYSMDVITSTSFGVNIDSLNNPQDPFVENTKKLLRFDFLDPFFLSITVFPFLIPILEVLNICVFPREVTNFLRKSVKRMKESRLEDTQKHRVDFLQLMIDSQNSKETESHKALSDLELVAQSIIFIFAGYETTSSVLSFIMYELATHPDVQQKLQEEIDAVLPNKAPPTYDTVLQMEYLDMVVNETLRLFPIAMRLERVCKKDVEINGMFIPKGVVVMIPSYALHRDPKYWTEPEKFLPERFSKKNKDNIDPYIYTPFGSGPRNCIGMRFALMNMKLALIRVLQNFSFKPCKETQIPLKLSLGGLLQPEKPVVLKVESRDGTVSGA

[10] = tested on: human cord blood (CB) CD34^+ cells; test: differentiation of human cord blood CD34+ cells to megakaryocytes; format: cell-based; conditions: concentration-dependent; maximum effect similar to that of rhTPO
[11] = in-vitro plasma protein binding, humans; format: in vitro ADME; conditions: human, 0.05 to 50 μg/mL
Description: as §1

[12] = pharmacokinetics after intravenous and oral administration in mice; format: in vivo; conditions: mouse, plasma
Description: After a single intravenous administration of the drug of Formula I as the monomaleate salt to mice and dogs, plasma concentrations of Formula I decreased in a biphasic manner.

[13] = tested on: liver microsomal enzymes; test: metabolism by dog liver microsomal enzymes; format: in vitro ADME
[14] = molecular target: T1, CYP1A2 (Homo sapiens, UniProt P05177); test: inhibition of human liver cytochrome P450 CYP1A2; format: in vitro ADME; conditions: human liver cytochrome P450 isoenzyme
T1 sequence (P05177 1-516): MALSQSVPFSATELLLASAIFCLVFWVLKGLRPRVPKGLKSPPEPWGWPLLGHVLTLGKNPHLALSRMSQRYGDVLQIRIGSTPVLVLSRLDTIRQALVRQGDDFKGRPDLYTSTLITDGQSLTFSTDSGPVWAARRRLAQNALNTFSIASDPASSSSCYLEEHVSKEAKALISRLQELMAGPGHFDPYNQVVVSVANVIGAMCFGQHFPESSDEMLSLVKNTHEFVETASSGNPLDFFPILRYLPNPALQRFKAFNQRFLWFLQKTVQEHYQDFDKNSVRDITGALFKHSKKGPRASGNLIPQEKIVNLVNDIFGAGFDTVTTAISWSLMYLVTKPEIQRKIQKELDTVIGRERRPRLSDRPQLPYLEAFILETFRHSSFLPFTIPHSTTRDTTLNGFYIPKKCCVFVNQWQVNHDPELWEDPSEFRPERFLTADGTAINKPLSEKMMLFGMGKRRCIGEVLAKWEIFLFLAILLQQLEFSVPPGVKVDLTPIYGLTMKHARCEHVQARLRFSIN

[15] = 4-week repeat dose toxicity in rats; format: in vivo, rat
[16] = cardiovascular and respiratory system effects in the conscious dog; format: in vivo; conditions: up to a dose of 300 mg/kg
[17] = tested on: liver microsomal enzymes; test: metabolism by mouse liver microsomal enzymes; format: in vitro ADME
[18] = 4-week repeat dose toxicity in the dog; format: in vivo
[19] = both sexes, human, in vivo, oral, 3 mg once daily, Study Day 14, mean
[20] = both sexes, human, in vivo, oral, 10 mg once daily, Study Day 14, mean
[21] = both sexes, human, in vivo, oral, 20 mg once daily, Study Day 14, simulated data at steady-state

2C9, sequence (P11712 whole entry): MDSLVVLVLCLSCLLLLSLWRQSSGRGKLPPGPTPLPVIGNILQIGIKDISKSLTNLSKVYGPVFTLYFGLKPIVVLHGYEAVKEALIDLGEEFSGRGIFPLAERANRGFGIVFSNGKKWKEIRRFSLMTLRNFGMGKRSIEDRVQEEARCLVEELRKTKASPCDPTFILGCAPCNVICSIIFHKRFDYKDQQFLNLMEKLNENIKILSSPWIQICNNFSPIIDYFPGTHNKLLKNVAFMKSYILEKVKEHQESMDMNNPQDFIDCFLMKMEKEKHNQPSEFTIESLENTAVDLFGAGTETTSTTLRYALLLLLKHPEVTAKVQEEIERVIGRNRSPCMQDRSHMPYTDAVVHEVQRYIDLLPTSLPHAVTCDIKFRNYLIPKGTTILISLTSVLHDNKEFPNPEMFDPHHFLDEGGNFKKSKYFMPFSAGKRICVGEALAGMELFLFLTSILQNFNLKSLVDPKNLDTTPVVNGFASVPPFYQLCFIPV

In the case of `O=C(Nc1nc(-c2cc(Cl)cs2)c(N2CCN(C3CCCCC3)CC2)s1)c1cnc(N2CCC(C(=O)O)CC2)c(Cl)c1` [Formula I, 1-(3-chloro-5-{[4-(4-chlorothiophen-2-yl)-5-(4-cyclohexylpiperazin-1-yl)thiazol-2-yl]carbamoyl}pyridin-2-yl)piperadine-4-carboxylic acid], the “inhibition of CYP2C9” value [1] is reported as “did not inhibit”, the “differentiation of human hematopoietic progenitor cells other than those of megakaryocytic lineage” value [2] is reported as “did not promote the differentiation” and the QT interval [3] is reported as “prolongation of QT interval was reported”. For the same molecule, the AUC(0-t) ([4]; both sexes, human, in vivo, oral, 3 mg, 3 mg once daily, Study Day 1, mean, read-out: AUC0-last) was 235 ng·h/mL, the Tmax ([4]; both sexes, human, in vivo, oral, 3 mg, 3 mg once daily, Study Day 1, median) was 6 h and the AUC(0-t) ([4]; both sexes, human, in vivo, oral, 3 mg, 3 mg once daily, Study Day 14, mean, read-out: AUC0-last) was 659 ng·h/mL. For the same molecule, the Tmax ([4]; both sexes, human, in vivo, oral, 3 mg, 3 mg once daily, Study Day 14, median) was 6 h, the AUC(0-t) ([4]; both sexes, human, in vivo, oral, 10 mg, 10 mg once daily, Study Day 1, mean, read-out: AUC0-last) was 841 ng·h/mL and the Tmax ([4]; both sexes, human, in vivo, oral, 10 mg, 10 mg once daily, Study Day 1, median) was 6 h. The AUC(0-t) ([4]; both sexes, human, in vivo, oral, 10 mg, 10 mg once daily, Study Day 14, mean, read-out: AUC0-last) was 2360 ng·h/mL, the Tmax ([4]; both sexes, human, in vivo, oral, 10 mg, 10 mg once daily, Study Day 14, median) was 4.5 h and the AUC(0-t) ([4]; both sexes, human, in vivo, oral, 20 mg, 20 mg once daily, Study Day 1, mean, read-out: AUC0-last) was 1960 ng·h/mL. It also gave a Tmax ([4]; both sexes, human, in vivo, oral, 20 mg, 20 mg once daily, Study Day 1, median) of 6 h, a Tmax ([4]; both sexes, human, in vivo, oral, 20 mg, 20 mg once daily, Study Day 14, median, simulated data at steady-state) of 6 h and an AUC(0-t) ([4]; both sexes, human, in vivo, oral, 20 mg, 20 mg once daily, Study Day 14, simulated data at steady-state, read-out: AUC0-last) of 3610 ng·h/mL. The AUC(0-inf) [4, 19] was 804 ng·h/mL, the half-life [4, 19] was 18.2 h and the Cmax ([4]; both sexes, human, in vivo, oral, 3 mg once daily, Study Day 14, mean, read-out: Cmax, ss) was 25.6 ng/mL. It also gave an AUC(0-inf) [4, 20] of 2870 ng·h/mL, a half-life [4, 20] of 18.1 h and a Cmax ([4]; both sexes, human, in vivo, oral, 10 mg once daily, Study Day 14, mean, read-out: Cmax, ss) of 94.1 ng/mL. The AUC(0-inf) [4, 21] was 7150 ng·h/mL, the half-life [4, 21] was 20.8 h and the Cmax ([4]; both sexes, human, in vivo, oral, 20 mg once daily, Study Day 14, simulated data at steady-state, read-out: Cmax, ss) was 205 ng/mL. It also gave a half-life at 14 days ([4]; both sexes, human, in vivo, oral, multi-dose study, independent of dose) of 18 to 21 h, a Cmax ([4]; both sexes, human, in vivo, 3 mg once daily oral suspension, Study Day 1, mean, read-out: Cmax) of 14.8 ng/mL and a Cmax ([4]; both sexes, human, in vivo, 10 mg once daily oral suspension, Study Day 1, mean, read-out: Cmax) of 53.2 ng/mL. The Cmax ([4]; both sexes, human, in vivo, 20 mg once daily oral suspension, Study Day 1, mean, read-out: Cmax) was 121 ng/mL, the AUC(0-t) ([4]; both sexes, human, plasma, oral, 3 mg, 3 mg dose administered over about fourteen (14) days, human, read-out: mean AUC0-last) was about 659 ng·h/mL and the Tmax at 14 days ([4]; both sexes, human, plasma, oral, 3 mg, 3 mg dose administered over about fourteen (14) days, human) was about 6 h. It also gave an AUC(0-t) ([4]; both sexes, human, plasma, oral, 10 mg, 10 mg dose administered over about fourteen (14) days, human, read-out: mean AUC0-last) of about 2360 ng·h/mL, a Tmax at 14 days ([4]; both sexes, human, plasma, oral, 10 mg, 10 mg dose administered over about fourteen (14) days, human) of about 4.4 h and an AUC(0-t) ([4]; both sexes, human, plasma, oral, 20 mg, 20 mg dose administered over about fourteen (14) days, human, Table 3: simulated data at steady-state, read-out: mean AUC0-last) of about 3610 ng·h/mL. The Tmax at 14 days ([4]; both sexes, human, plasma, oral, 20 mg, 20 mg dose administered over about fourteen (14) days, human, Table 3: simulated data at steady-state) was about 5.5 h, the Cmax at 14 days ([4]; both sexes, plasma, oral, 3 mg dose administered over about fourteen (14) days, human) was about 25 ng/mL and the Cmax at 14 days ([4]; both sexes, plasma, oral, 10 mg dose administered over about fourteen (14) days, human) was about 94 ng/mL. For the same molecule, the Cmax at 14 days ([4]; both sexes, plasma, oral, 20 mg dose administered over about fourteen (14) days, human, Table 3: simulated data at steady-state) was about 204 ng/mL, the “dose proportionality of Cmax and AUC” value ([4]; following single and repeat administration, 3 mg to 20 mg) was “increased proportionally with respect to dose” and the fraction unbound [5] was 0.024 to 0.03. For the same molecule, the “changes in the gastric mucosa” value ([6]; cynomolgus monkey, repeat dosing 4 weeks, 3, 10, 100, 1000 mg/kg/day) was “necrosis of the surface epithelium and atrophy of the fundic glands and edema and inflammatory infiltrates in the lamia propria of the fundus”, the “muscle degeneration/necrosis in femoral, lower thigh or multifides muscles” value ([6]; cynomolgus monkey, repeat dosing 4 weeks, lesions partly present before dosing and in a control) was “one or more monkeys in all dose groups” and the “CK and aldolase levels” value ([6]; cynomolgus monkey, elevated levels also present prior to the first dose) was “Elevated levels of CK and aldolase”. The “reversibility of gastric mucosa changes” value ([6]; high dose monkeys, on drug withdrawal) was “not entirely”, the “inhibition of CYP2C19” value [7] was “did not inhibit” and the “metabolism by liver microsomal enzymes” value [8] was “does not appear to be metabolized”. For the same molecule, the “inhibition of CYP3A4” value [9] was “did not inhibit”, the “differentiation of human cord blood CD34+ cells to human megakaryocytes” value [10] was “promotes the differentiation” and the fraction unbound [11] was 0.034 to 0.037. The half-life ([12]; mice, single intravenous administration as the monomaleate salt, read-out: terminal elimination half-life (t1/2) (converted)) was 2.7 h, the bioavailability ([12]; oral administration, read-out: absolute bioavailability) was 91% and the “metabolism by liver microsomal enzymes” value [13] was “does not appear to be metabolized”. For the same molecule, the “inhibition of CYP1A2” value [14] was “did not inhibit”, the “reversibility of gastric mucosa changes” value ([15]; rat, on drug withdrawal) was “resolved on drug withdrawal” and the “CK and aldolase levels” value ([15]; rat, repeat dosing 4 weeks) was “Elevated levels of CK and aldolase”. For the same molecule, the “muscle degeneration/necrosis in femoral, lower thigh or multifides muscles” value ([15]; rat, repeat dosing 4 weeks) was 1 or 2 rats per dose group, the “changes in the gastric mucosa” value ([15]; rats, repeat dosing 4 weeks, 3, 10, 30, 100 mg/kg/day) was “degeneration of chief cells and parietal cells” and the “cardiovascular or respiratory system effects” value [16] was “No cardiovascular or respiratory system effects were observed”. For the same molecule, the “metabolism by liver microsomal enzymes” value [17] was “does not appear to be metabolized”, the muscle lesions ([18]; any dose) was “No muscle lesions were observed” and the “renal findings at the end of the recovery period” value ([18]; high dose animals (100, 300 mg/kg/day), all other renal lesions resolved) was “regeneration of renal tubular epithelial persisted in the majority of the high dose animals”. For the same molecule, the “microscopic changes in the cortex of the kidney” value ([18]; monomaleate salt, 10, 30, 100, 300 mg/kg/day for 4 weeks) was “epithelial cell regeneration of proximal tubules and interstitial subacute inflammation”.
